Reference: US12201632B2, “Levoketoconazole for treatment of congenital adrenal hyperplasia and primary aldosteronism” (Strongbridge Dublin Limited, priority 2018, dated 2025)

Experiments:
[1] = test system: ACTH independent hyperplasia cultures; assay: Cortisol production in primary ACTH independent hyperplasia cultures; type: cell-based, human; settings: 3 days; for IC50 inhibition of cortisol production: ACTH independent hyperplasia no. 1, basal condition
Description: To obtain primary cultures, adrenal specimens (adrenocortical adenomas, adrenal hyperplasias and adrenocortical carcinomas) were collected after adrenalectomy at the department of Surgery, Erasmus University Medical Center, Rotterdam, the Netherlands, between April 2016 and May 2018. The study was conducted under guidelines that have been approved by the Medical Ethics Committee of the Erasmus Medical Center and informed consent was obtained from all patients. Immediately after surgery, specimens were minced into small pieces of 2-3 mm^3, washed in culture medium and centrifuged for 5 minutes at 600 g. The tissue was stored overnight in culture medium at 4° C., where after the tissue was centrifuged again and the supernatant was removed. Fragments were dissociated using 10-25 ml collagenase type 1 (2 mg/ml: Sigma-Aldrich), followed by incubation at 37° C. for up to two hours. Ficoll (GE healthcare) density gradient separation was used once or twice as required in order to separate contaminating red blood cells from the tumor cells. Cell viability and cell amount were counted by trypan blue exclusion. Dissociated cells were plated at a density of 10^5 cells per well. […]
Cortisol concentrations were measured in the supernatant using a chemiluminescence immunoassay system (Immulite 2000XPi; Siemens DPC Inc., Los Angeles, Calif., USA). In addition, we carried out multi-steroid analysis by liquid chromatography/mass spectrometry (LC/MS-MS) to accurately quantify androstenedione, corticosterone, cortisol, 11-deoxycortisol, DHEA, DHEAS, progesterone, 17-hydroxyprogesterone, and testosterone. […] Steroids were quantified with respect to a calibration series, with internal standards. Steroids were quantified on a Xevo TQS LC-MS/MS (Waters Chromatography).
Statistical analysis was performed using Graphpad Prism 6.0 (Graphpad Software, San Diego, CA). […] Effects of both compounds on the steroid profile were measured as absolute change compared to control and compared using the Student's t-test. […]

HAC15 cells = assay: Steroid profile by LC/MS-MS in HAC15 cells; type: cell-based, Human; settings: 0.5 μM; for 11-DOC absolute change vs ACTH stimulation with vehicle / 11-DOC percentage change vs ACTH stimulation with vehicle / 17-OHP absolute change vs ACTH stimulation with vehicle / 17-OHP percentage change vs ACTH stimulation with vehicle / Androstenedione absolute change vs ACTH stimulation with vehicle / Androstenedione percentage change vs ACTH stimulation with vehicle / Corticosterone absolute change vs ACTH stimulation with vehicle / Corticosterone percentage change vs ACTH stimulation with vehicle / Cortisol absolute change vs ACTH stimulation with vehicle / Cortisol percentage change vs ACTH stimulation with vehicle / DHEA absolute change vs ACTH stimulation with vehicle / DHEA percentage change vs ACTH stimulation with vehicle / DHEAS absolute change vs ACTH stimulation with vehicle / DHEAS percentage change vs ACTH stimulation with vehicle / Prog absolute change vs ACTH stimulation with vehicle / Prog percentage change vs ACTH stimulation with vehicle / Testosterone absolute change vs ACTH stimulation with vehicle / Testosterone percentage change vs ACTH stimulation with vehicle / 11-DOC absolute change vs control / 11-DOC percentage change vs control / 17-OHP absolute change vs control / 17-OHP percentage change vs control / Androstenedione absolute change vs control / Androstenedione percentage change vs control / Corticosterone absolute change vs control / Corticosterone percentage change vs control / Cortisol absolute change vs control / Cortisol percentage change vs control / DHEA absolute change vs control / DHEA percentage change vs control / DHEAS absolute change vs control / DHEAS percentage change vs control / Prog absolute change vs control / Prog percentage change vs control / Testosterone absolute change vs control / Testosterone percentage change vs control: 3 days; for 11-DOC absolute change vs control / 11-DOC percentage change vs control / 17-OHP absolute change vs control / 17-OHP percentage change vs control / Androstenedione absolute change vs control / Androstenedione percentage change vs control / Corticosterone absolute change vs control / Corticosterone percentage change vs control / Cortisol absolute change vs control / Cortisol percentage change vs control / DHEA absolute change vs control / DHEA percentage change vs control / DHEAS absolute change vs control / DHEAS percentage change vs control / Prog absolute change vs control / Prog percentage change vs control / Testosterone absolute change vs control / Testosterone percentage change vs control: HAC15, Basal
Description: Human adrenocortical carcinoma HAC15 and mouse corticotroph AtT20 cells were used, purchased as a kind gift by Dr. W. Rainey, and obtained from Dr. J. Tooze (European Organization for Molecular Biology), respectively. Both cell lines were cultured in 75 cm^2 flasks at 37° C. in a humidified incubator (Greiner Bio-One, Alphen a/d Rijn, the Netherlands) at 5% CO2. Dulbecco's Modified Eagle Medium F12 containing 5% fetal calf serum was used for HAC15, whereas AtT20 cells were cultured in Dulbecco's minimal essential medium (DMEM) supplemented with 10% fetal calf serum. Both mediums were supplemented with L-glutamine (2 mmol/L) and penicillin (10^5 U/L). Short tandem repeat (str) profiling using a Powerplex Kit (Promega, Leiden, the Netherlands) of HAC15 and AtT20 gave results consistent with the ATCC database, confirming the identity of both cell lines. Medium and supplements were obtained from Invitrogen, Breda, the Netherlands. Once a week, cells were harvested with trypsin (0.05%)-EDTA (0.53 mM) and resuspended in culture medium. Levoketoconazole (COR-003) and racemic ketoconazole (both from Cortendo AB) were dissolved in absolute ethanol (EtOH), according to manufacturer's instructions, and stored at −20° C. at a stock concentration of […]. At the start of each experiment, both drugs were freshly prepared and diluted in EtOH in the correct concentrations. Synacten (synthetic ACTH, Novartis Pharma A.G.) stock concentration was stored at 4° C. and dissolved in culture medium at the day of use. The final concentrations of ACTH were chosen based on a dose-response curve in HAC15 cells and previously reported studies in the literature. For HAC15, 200,000 and 100,000 cells were plated in 0.5 ml medium in 24 well plates for experiments of 1 and 3 days, respectively. For AtT20, cell amounts were 100,000 and 30,000. One day after seeding the HAC15 cells, the medium was refreshed and cells were treated 1 or 3 days in quadruplicate with levoketoconazole or racemic ketoconazole (0.05-5 μM), with or without 10 nM ACTH. To study effects of both compounds on pituitary AtT20 cells, concentrations of 0.1 to 10 μM of both drugs were used. Controls were vehicle treated. […] Media were collected after 1 or 3 days of incubation and stored at −20° C. until analysis. All cell culture experiments were carried out at least twice.
Cortisol concentrations were measured in the supernatant using a chemiluminescence immunoassay system (Immulite 2000XPi; Siemens DPC Inc., Los Angeles, Calif., USA). In addition, we carried out multi-steroid analysis by liquid chromatography/mass spectrometry (LC/MS-MS) to accurately quantify androstenedione, corticosterone, cortisol, 11-deoxycortisol, DHEA, DHEAS, progesterone, 17-hydroxyprogesterone, and testosterone. Concentrations that were tested on the LC/MS-MS were closest to 50% inhibition or maximal inhibition of cortisol as determined by the immunoassay. Steroids were quantified with respect to a calibration series, with internal standards. Steroids were quantified on a Xevo TQS LC-MS/MS (Waters Chromatography).
Statistical analysis was performed using Graphpad Prism 6.0 (Graphpad Software, San Diego, CA). Non-linear regression curve fitting program was used to calculate the half maximal inhibitory concentrations (IC50) on cortisol production. Effects of both compounds on the steroid profile were measured as absolute change compared to control and compared using the Student's t-test. When assessing differences between effects of both compounds, the percentage change was evaluated and compared in order to correct for differences in the vehicle treated control cells. Values of P<0.05 were considered statistically significant and data are presented as mean SEM.

## CC(=O)N1CCN(c2ccc(OC[C@@H]3CO[C@@](Cn4ccnc4)(c4ccc(Cl)cc4Cl)O3)cc2)CC1 (relative stereo) [levoketoconazole, 2S,4R cis-1-acetyl-4-[4-[[2-(2,4-dichlorophenyl)-2-(1H-imidazol-1-ylmethyl)-1,3-dioxolan-4-yl]methoxyl]phenyl]piperazine]
[1]
  IC50 inhibition of cortisol production: Ambiguous
HAC15 cells; HAC15, ACTH
  total sum of decrease of steroids: −2,811 nmol/L
  11-DOC absolute change vs ACTH stimulation with vehicle: -1524 nmol/L
  11-DOC percentage change vs ACTH stimulation with vehicle: −47%
  17-OHP absolute change vs ACTH stimulation with vehicle: -24.73 nmol/L
  17-OHP percentage change vs ACTH stimulation with vehicle: (−47%)
  Androstenedione absolute change vs ACTH stimulation with vehicle: -943.7 nmol/L
  Androstenedione percentage change vs ACTH stimulation with vehicle: (−52%)
  Corticosterone absolute change vs ACTH stimulation with vehicle: -1.063 nmol/L
  Corticosterone percentage change vs ACTH stimulation with vehicle: (−36%)
  Cortisol absolute change vs ACTH stimulation with vehicle: -13.81 nmol/L
  Cortisol percentage change vs ACTH stimulation with vehicle: −31%
  DHEA absolute change vs ACTH stimulation with vehicle: -13.81 nmol/L
  DHEA percentage change vs ACTH stimulation with vehicle: (−31%)
  DHEAS absolute change vs ACTH stimulation with vehicle: -250.1 nmol/L
  DHEAS percentage change vs ACTH stimulation with vehicle: (−43%)
  Prog absolute change vs ACTH stimulation with vehicle: -2.163 nmol/L
  Prog percentage change vs ACTH stimulation with vehicle: (−64%)
  Testosterone absolute change vs ACTH stimulation with vehicle: -30.52 nmol/L
  Testosterone percentage change vs ACTH stimulation with vehicle: (−71%)
HAC15 cells; HAC15, ACTH, listed as LK
  11-DOC absolute change vs ACTH stimulation with vehicle: -1524 nmol/L
  11-DOC percentage change vs ACTH stimulation with vehicle: (−47%)
  Cortisol absolute change vs ACTH stimulation with vehicle: -21.80 nmol/L
  Cortisol percentage change vs ACTH stimulation with vehicle: (−65%)
HAC15 cells
  11-DOC absolute change vs control: -1129 nmol/L
  11-DOC percentage change vs control: (−48%)
  17-OHP absolute change vs control: -26.89 nmol/L
  17-OHP percentage change vs control: (−57%)
  Androstenedione absolute change vs control: -1105 nmol/L
  Androstenedione percentage change vs control: (−56%)
  Corticosterone absolute change vs control: -0.2938 nmol/L
  Corticosterone percentage change vs control: (−39%)
  Cortisol absolute change vs control: -16.36 nmol/L
  Cortisol percentage change vs control: (−69%)
  DHEA absolute change vs control: -31.04 nmol/L
  DHEA percentage change vs control: (−44%)
  DHEAS absolute change vs control: -658.6 nmol/L
  DHEAS percentage change vs control: (−56%)
  Prog absolute change vs control: -0.9125 nmol/L
  Prog percentage change vs control: (−55%)
  Testosterone absolute change vs control: -39.19 nmol/L
  Testosterone percentage change vs control: (−64%)
HAC15 cells; HAC15, basal
  total sum of decrease of steroids: −3,007 nmol/L

## CC(=O)N1CCN(c2ccc(OCC3COC(Cn4ccnc4)(c4ccc(Cl)cc4Cl)O3)cc2)CC1 (racemic) [racemic ketoconazole, Ketoconazole]
[1]
  IC50 inhibition of cortisol production: Ambiguous
[1]; Homo sapiens, 72 h, ACTH independent hyperplasia no. 2, ACTH (85 μM) stimulated condition, read-out: IC50 inhibition of cortisol production
  IC50: 1.39 µM
HAC15 cells; HAC15, ACTH
  total sum of decrease of steroids: −1,591 nmol/L
  11-DOC absolute change vs ACTH stimulation with vehicle: -664.5 nmol/L
  11-DOC percentage change vs ACTH stimulation with vehicle: (−22%****)
  17-OHP absolute change vs ACTH stimulation with vehicle: -14.13 nmol/L
  17-OHP percentage change vs ACTH stimulation with vehicle: (−29%***)
  Androstenedione absolute change vs ACTH stimulation with vehicle: -661.4 nmol/L
  Androstenedione percentage change vs ACTH stimulation with vehicle: (−40%*)
  Corticosterone absolute change vs ACTH stimulation with vehicle: -0.0125 nmol/L
  Corticosterone percentage change vs ACTH stimulation with vehicle: (−1.5%****)
  Cortisol absolute change vs ACTH stimulation with vehicle: -15.15 nmol/L
  Cortisol percentage change vs ACTH stimulation with vehicle: (−45%****)
  DHEA absolute change vs ACTH stimulation with vehicle: -17.04 nmol/L
  DHEA percentage change vs ACTH stimulation with vehicle: (−41%***)
  DHEAS absolute change vs ACTH stimulation with vehicle: -197.4 nmol/L
  DHEAS percentage change vs ACTH stimulation with vehicle: (−35%)
  Prog absolute change vs ACTH stimulation with vehicle: -0.9625 nmol/L
  Prog percentage change vs ACTH stimulation with vehicle: (−30%****)
  Testosterone absolute change vs ACTH stimulation with vehicle: -20.29 nmol/L
  Testosterone percentage change vs ACTH stimulation with vehicle: (−50%****)
HAC15 cells
  11-DOC absolute change vs control: -521.2 nmol/L
  11-DOC percentage change vs control: (−23%****)
  17-OHP absolute change vs control: -16.50 nmol/L
  17-OHP percentage change vs control: (−37%****)
  Androstenedione absolute change vs control: -809.0 nmol/L
  Androstenedione percentage change vs control: (−47%**)
  Corticosterone absolute change vs control: +0.1750 nmol/l
  Corticosterone percentage change vs control: (+19%****)
  Cortisol absolute change vs control: -10.93 nmol/L
  Cortisol percentage change vs control: (−47%****)
  DHEA absolute change vs control: -39.50 nmol/L
  DHEA percentage change vs control: (−56%**)
  DHEAS absolute change vs control: -496.4 nmol/L
  DHEAS percentage change vs control: (−44%*)
  Prog absolute change vs control: -0.3125 nmol/L
  Prog percentage change vs control: (−19%****)
  Testosterone absolute change vs control: -25.78 nmol/L
  Testosterone percentage change vs control: (−58%***)
HAC15 cells; HAC15, basal
  total sum of decrease of steroids: −1,919 nmol/L
